Test results published in patent US7029695B2, “Therapeutic compositions containing glutathione analogs” (Telik, Inc., priority 2001, dated 2006).

Experiments:
[1] = test system: fluorouracil-induced neutropenia; details: liposomal formulation of Example 4; 35 mg/kg i.v., 8 daily injections after fluorouracil 125 mg/kg i.p.; male CD rats
Protocol: Male CD rats (250–300 g) were injected intraperitoneally with either the antineoplastic drug, fluorouracil (125 mg/kg) or an equivalent volume of its vehicle (saline). […] Rats originally injected with saline rather than fluorouracil received saline intravenously (n=7). Blood samples were taken for measurement of neutrophil levels prior to the fluorouracil and every 1 to 2 days thereafter for 14 days.

[2] = test system: circulating neutrophil levels; details: liposomal formulation of Example 4; 35 mg/kg i.v., 5 daily injections; normal male CD rats
Description: Blood samples were taken for measurement of neutrophil levels daily.

γ-Glutamyl-S(benzyl)cysteinyl-R-phenyl glycine diethyl ester hydrochloride [Compound 9]
recovery from chemotherapy-induced neutropenia [1]: accelerated recovery | circulating neutrophil levels [2]: increased
